Laboratory results taken from patent US20070053831A1, “Methods for binding agents to b-amyloid plaques” (priority 2003, published 2007).

Assays:
[1] = target: T1, β-amyloid (1-40) fibrils (Homo sapiens, UniProt P05067); assay: In vitro competition assay with [18F]FDDNP on synthetic β-amyloid (1-40) fibrils (vacuum filtration); format: binding; conditions: for Ki: synthetic β-amyloid (1-40) fibrils, 1 h, PBS pH 7.4, ±SD, read-out: Ki (decrease in the binding of [18F]FDDNP); for dose dependent decrease in the specific binding of [18F]FDDNP: 0.1 pM to 83 μM of nonradioactive agent
T1 construct: β-amyloid (1-40) (Biosource, Camarillo, Calif.) fibrils were prepared; purchased Biosource, Camarillo, Calif; host or cells: synthetic peptide
T1 sequence (P05067 672-711 limits assumed): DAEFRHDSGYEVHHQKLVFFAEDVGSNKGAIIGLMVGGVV
Protocol: Potential therapeutic agents were evaluated to determine their ability to bind to β-amyloid fibrils. • Amyloid (1-40) fibril formation. β-amyloid (1-40) (Biosource, Camarillo, Calif.) fibrils were prepared. 0.5 mg of β-amyloid (1-40) was dissolved in 1 mL PBS, pH 7.4 and mixed with a magnetic stir bar for 3 days at 37° C. resulting in a visibly cloudy solution. Fibrils were used immediately after their production was confirmed. The production of 13-amyloid fibrils was confirmed by imaging with a Jeol 100CX transmission electron microscope (Jeol, Peabody, Mass.). A 5 μL drop from a fibril solution was allowed to settle for 30 s on a treated copper grid before being washed away with a drop of 2% uranyl acetate solution. Finally, an additional drop of 2% uranyl acetate was added to the grid to negatively stain the fibrils. Fibrils were used immediately after their production was confirmed. Additional tests for fibril formation using Congo red (CR, Sigma) and Thioflavine T (TT, Sigma) were performed, as well. The absence of fibrils in the filtrate in the in vitro competition assays described below was determined by the same tests using CR. In vitro competition assays with [^18[…] against NSAIDs and charge amyloid dyes. Solutions of nonradioactive agents, namely (S)-naproxen (Sigma), (R)-ibuprofen (BIOMOL, Plymouth Meeting, Pa.), (S)-ibuprofen (Sigma), diclofenac (Sigma), CR and TT, were prepared fresh for each radioactive competition assay. APFF glass fiber filters (0.7 μm particle retention; Millipore, Bedford, Mass.) were used in a 1225 sampling manifold (Millipore) that was modified with stainless steel support screens (Millipore) and glass sample chambers. Vacuum filtration involved 0.865 μg/mL of in vitro fibrils of synthetic β-amyloid (1-40) and 37 MBq/mL of [^18[…] incubated for 1 h in PBS, pH 7.4 (1% ethanol) with various concentrations of the nonradioactive agents with the range of 0.1 pM to 83 μM. Each filter was then washed twice with 3 ml of PBS, pH 7.4. The radioactivity retained by the filters was measured and decay-corrected to a common reference time with a Packard Cobra II Auto-Gamma gamma counter (Packard, Meriden, Conn.). […] All competition assays were performed in triplicate. Competition results were analyzed and then Ki values calculated using the Ligand Binding Module for SigmaPlot 2001 (SPSS, Chicago, Ill.).

[2] = test system: senile plaques; assay: Digital autoradiography with [18F]FDDNP of AD brain specimens pretreated with nonradioactive agents; format: binding, human
Protocol: Brain specimens from a postmortem-diagnosed definite AD patient were treated. Briefly, formalin-treated, cryoprotected brain specimens were sectioned 70 μm thick coronally mounted on gelatine-coated glass slides, allowed to dry, and were defatted for 40 min in xylene prior to rinsing of the tissue with ethanol. Finally, lipofuscin autofluorescence in some brain specimens was quenched prior to staining using 10 mM CuCl2 in 50 mM ammonium acetate buffer, pH 5. The quenching determined the origin of lipofuscin fluorescence in brain specimens. […] Pretreated and cryosections with no competitor were incubated for 25 min at room temperature with […] of [^18[…] dissolved in 10 mL of 1% ethanol in 0.9% saline (w/v) per cryosection. Following incubation, the sections were optimally washed with water (30 sec); 60% 2-methyl-2-butanol (3 min; Sigma) agitated at 40 RPMs on a Junior Orbit Shaker (Lab-Line Instruments, Melrose Park, Ill.) for differentiation (Bancroft and Stevens, 1990); and then water (30 sec). The sections were dried on a warm hot plate with a steady stream of warm air, exposed to β^+-sensitive phosphor plates for 40 min Fuji Film Medical Systems USA, Stamford, Conn.), and scanned with a FUJI BAS 5000 Phosphorimager (Fuji) at a resolution of 25 μm, as described previously ([…] et al., 2001a). […] FIG. 2Q) in the autoradiograms. Autoradiography was carried out at least in triplicate for each competitor. Statistical analysis of the autoradiograms involved one-way ANOVA with Dunnett's post test using Prism 3.02 (GraphPad, San Diego, Calif.) to compare the differences in the ratio of gray matter-to-white matter (FIG. 2Q) radioactivity of [^18]FDDNP in autoradiograms pretreated with the nonradioactive agents and without pretreatment. Unpaired t-tests were performed to compare the difference of measured [^18[…] radioactivity per area of tissue (Bq/mm^2) in the gray and white matter of each autoradiogram. The same brain specimens used for autoradiography were observed using fluorescence microscopy. Tissues were mounted with Vectashield (Vector, Burlingame, Calif.) and observed with a Nikon Labophot fluorescence microscope (Nikon USA, Melville, N.Y.) with a FITC filter set.

[3] = test system: amyloid plaques; conditions: cited from earlier work
[4] = test system: amyloid plaques and tangles; assay: DDNP fluorescence labeling of brain tissue sections in vitro; design: species or system human
Protocol: (§1) A 2.1 mg/mL DDNP stock solution was prepared, which was adjusted to 8 mM in 100% ethanol. A DDNP working solution was prepared by diluting the stock solution with distilled water in a ratio of 1:100-1000 (stock solution:distilled water).
β-amyloid 250 μM (1.25 mg/mL in distilled water) was aggregated at 37° C. for 48 hours. 5 μL were smeared on slides, air-dried and then rehydrated with distilled water. Alternatively, Aβ-positive brain tissue sections were rehydrated with distilled water. DDNP working solution was applied to each slide for 30 minutes at room temperature. The slides were washed three times for five minutes with distilled water. The slides were coverslipped with fluorescent protectant mounding media (Vectashield™, available Vector Labs., Burlingame, Calif.) and observed under a fluorescence microscope with a thioflavin S or FITC filter.

[5] = target: T2, β-amyloid 1-40 injected into rat cortex (Homo sapiens, UniProt P05067); assay: DDNP labeling of β-amyloid injected into rat brain in vivo; conditions: rats, FIGS. 2A to 2E
T2 construct: unilateral stereotaxic injection of 3 μg of aggregated β-amyloid 1-40 into rat cortex; host or cells: exogenous peptide fibrils injected into rat brain
T2 sequence (P05067 672-711 limits assumed): as above
Protocol: β-amyloid 250 μM (1.25 mg/mL in distilled water) was aggregated at 37° C. for 48 hours to produce fibrils confirmed by smears. Three rats were anesthetized. 3 μL of a solution of Aβ fibrils (1.25 μg/μL) were injected unilaterally into the cortex of each rat (Bregma 0, AP-4.1 mm, ML+2.0 mm, DV-3.1 mm). Then 3 μL of phosphate buffered saline (PBS) were injected into the contralateral side of each rat brain as a vehicle control. After injection, the needle remained for 5 minutes to prevent reflux, and then the cranial hole was sealed with bone wax. Eight days after β-amyloid injection into the rat brains, the rats were injected with 10 microliters of DDNP working solution (320 micromolar) prepared by diluting DDNP stock solution into 1.5% BSA (bovine serum albumin) in phosphate buffered saline, pH 7.2).
After one hour, the rats were cardiac perfused with PLP fixative (4% paraformaldehyde, 1% lysin in 0.05 M phosphate buffer, pH 7.4). Additional immersion fixation of rat brain was at 4° C. overnight with PLP fixative. The rat brains were washed with PBS, saturated in 10 and 20% sucrose, and snap frozen in chilled isopentane (−70° C.) with liquid nitrogen. The brains were cryostat sectioned at […] around the needle-track and directly coverslipped with glycerol and fluorescence protectant (Vectashield™).

[6] = test system: neurofibrillary tangles, amyloid peptides, and diffuse amyloid; assay: In vitro fluorescence labeling of Alzheimer's disease brain specimens with DDNP and [F-18]FDDNP; design: species or system human; conditions: all Alzheimer's disease brain specimens
[7] = Storage of DDNP stock solution; format: physicochemical; conditions: 8 mM in 100% ethanol, freezer; used at 1/100 to 1/1,000 dilutions
Protocol: as §1

[8] = test system: β-amyloid plaques and neurofibrillary tangles; assay: PET with [F-18]FDDNP in patients; format: in vivo, human
Protocol: A patient was placed in a tomograph to obtain brain dynamic PET images. 8.0 mCi of 2-(1.1-dicyanopropen-2-yl)-6-(2-[^18F]-fluoroethyl)-methylamino)-naphthalene ([F18]FDDNP) (specific activity: 5-12 Ci/micromol; mass: ˜1 nanomol), prepared as described in Example 1(f), were injected intravenously into the arm of the patient. Dynamic acquisition data of brain images were recorded simultaneously in forty-seven brain planes for two hours.
Labeling and detection of human β-amyloid plaques and neurofibrillary tangles in vivo were conducted using the following procedures. Ten human subjects, seven Alzheimer's diseased patients (ages 71 to 80) and three control patients (ages 62 to 82) were studied. The patients were positioned supine in an EXACT HR+962 tomograph (Siemens-CTI, Knoxville, Tenn.) with the imaging plane parallel to the orbito-meatal line. Venous catheterization was performed, and then [F-18]FDDNP (5-10 mCi) in human serum albumin (25%) was administered as a bolus via the venous catheter. Sequential emission scans were obtained beginning immediately after [F-18]FDDNP administration using the following scan sequence: six 30 second scans, four 3 minute scans, five 10 minute scans, and three 20 minute scans. Rapid venous blood sampling was performed via the indwelling catheter in two subjects for input function determination and plasma metabolite analysis.
The residence time shown is in reference to that in the pons, an area known to have limited involvement in Alzheimer's disease pathology. The residence time was calculated from the clearance rates of the tracer in affected regions of interest (ROI) and in the pons as: Residence time=[1/clearance rate for affected ROI]−[1/clearance rate for pons] Separate ROIs were defined in entorhinal cortex, hippocampus, lateral temporal cortex and pons. The region with the slowest clearance rate was used as the affected ROI in the calculation of the residence time shown in FIG. 4.

[9] = AD brain specimens pretreated with 40 μM agent for 60 min
[10] = AD brain specimens pretreated with 100 nM agent for 60 min
[11] = cortex of the brain of an Alzheimer's disease patient, FIG. 1B

CN(C)/C=C/C(=C(C#N)C#N)c1ccc2cc(N(C)C)ccc2c1
melting point: 213 to 215 °C

CN(C)c1ccc2cc(-c3ccnc(Cl)c3C#N)ccc2c1
melting point: 198 to 200 °C

CN(C)c1ccc2cc(-c3ccnc(N)c3C#N)ccc2c1.O
melting point: 256 to 257 °C

COc1nccc(-c2ccc3cc(N(C)C)ccc3c2)c1C#N
melting point: 150 to 151 °C

CN(C)c1ccc2cc(C(/C=C\NCCO)=C(C#N)C#N)ccc2c1
melting point: 168 to 170 °C

CN(C)c1ccc2cc(-c3ccnc(SCCO)c3C#N)ccc2c1
melting point: 210 to 212 °C

CN(C)c1ccc2cc(-c3ccn4ccnc4c3C#N)ccc2c1
melting point: 268 to 269 °C

CC(C)Cc1ccc([C@@H](C)C(=O)O)cc1 [(R)-ibuprofen]
Ki [1]: 44.4 ± 17.4 µM | specific binding of [18F]FDDNP to regions of gray matter with senile plaques [2, 9]: significantly reduced

CC(C)Cc1ccc([C@H](C)C(=O)O)cc1 [(S)-ibuprofen]
Ki [1]: 11.3 ± 5.2 µM | specific binding of [18F]FDDNP to regions of gray matter with senile plaques [2, 9]: significantly reduced

COc1ccc2cc([C@H](C)C(=O)O)ccc2c1 [(S)-naproxen]
Ki [1]: 0.0057 ± 0.00131 µM | specific binding of [18F]FDDNP to regions of gray matter with senile plaques [2, 10]: significantly reduced

Nc1c(/N=N/c2ccc(-c3ccc(/N=N/c4cc(S(=O)(=O)O)c5ccccc5c4N)cc3)cc2)cc(S(=O)(=O)O)c2ccccc12 [CR, Congo red]
dose dependent decrease in the specific binding of [18F]FDDNP [1]: did not exhibit a dose dependent decrease | specific binding of [18F]FDDNP to regions of gray matter with senile plaques [2, 9]: minimal effect

O=C(O)c1cc(/N=N/c2ccc(-c3ccc(/N=N/c4ccc(O)c(C(=O)O)c4)cc3)cc2)ccc1O [Chrysamine G]
ability to label amyloid plaques in Alzheimer's brain [3]: appears weak

CC(=C(C#N)C#N)c1ccc2cc(N(C)C)ccc2c1 [DDNP, 2-(1,1-dicyanopropen-2-yl)-6-dimethylaminonaphthalene]
labeling of plaques [4, 11]: strong | labeling of tangles [4, 11]: weak | labeling of amyloid deposits in cryostat and paraffin sections of AD brain tissue ([4]; fluorescence microscopy): readily labeled amyloid deposits | passage of the blood brain barrier [5]: passes the blood brain barrier | visualization of neurofibrillary tangles, amyloid peptides, and diffuse amyloid [6]: excellent visualization | stability of stock solution [7]: can be kept in the freezer for six months and still produce acceptable results | melting point: 154.5 to 155 °C

O=C(O)Cc1ccccc1Nc1c(Cl)cccc1Cl [Diclofenac, diclofenac]
dose dependent decrease in the specific binding of [18F]FDDNP [1]: did not exhibit a dose dependent decrease | specific binding of [18F]FDDNP to regions of gray matter with senile plaques [2, 9]: minimal effect

CC(=C(C#N)C#N)c1ccc2cc(N(C)CCF)ccc2c1 [FDDNP]
specific binding of [18F]FDDNP to regions of gray matter with senile plaques [2, 10]: significantly reduced

Cc1ccc2c(c1)sc(-c1ccc(N(C)C)cc1)[n+]2C.[Cl-] [TT, Thioflavine T]
dose dependent decrease in the specific binding of [18F]FDDNP [1]: did not exhibit a dose dependent decrease | specific binding of [18F]FDDNP to regions of gray matter with senile plaques [2, 9]: minimal effect

CC(=C(C#N)C#N)c1ccc2cc(N(C)CC[18F])ccc2c1 [[F-18]FDDNP]
estimated residence time (in reference to pons) ([8]; Alzheimer's diseased patients versus control patients, FIG. 4): different from values in control patients | regional clearance from brain ([8]; brain areas known to accumulate β-amyloid plaques and neurofibrillary tangles): slower clearance | crossing of the blood brain barrier ([8]; human, intravenous injection): crosses the blood brain barrier readily in proportion to blood flow | visualization of neurofibrillary tangles, amyloid peptides, and diffuse amyloid [6]: excellent visualization
